We go through six compounds from patent US6054490A, “Use of sesquiterpenes for inhibiting oxidative enzymes” (Zylepsis Limited, priority 1995, dated 2000).

For data set [1] the following is noted: racemic nitrendipine; cited from earlier work.
For data set [2] the following is noted: oral administration with water; cited from earlier work.
For another data set, the system named is CYP3A4. The conditions noted are these: cited from earlier work.
Data set [3] deals with felodipine first-pass metabolism. The settings on record: in vivo; cited from earlier work.
The target in data set [4] is T1, cytochrome P450 3A4 (Homo sapiens, UniProt P08684).
T1 construct: made in house; host or cells: Saccharomyces cerevisiae strain AH22, vector pAAH5 (p3A4); microsomal fractions
Kind of data set: Inhibition of cyclosporin A metabolism (3 metabolites M1, M6, M21) by yeast-expressed P450 3A4 microsomes. The data set is classed as biochemical. The protocol:
Human cytochrome P450 3A4 was expressed using the vector pAAH5 (p3A4) in Saccharomyces cerevisiae strain AH22 (Guengerich et al., 1991). Plasmid DNA was prepared using Promega's Wizard kit and S. cerevisiae strain AH22 (a his4-519 leu2-3,2-112) was used for transformation. Transformants were grown and maintained at 30° C. on minimal medium containing 2% (w/v) glucose, 0.67% (w/v) Difco yeast nitrogen base without amino acids and 20 μg/ml histidine. Cytochrome P450 content and substrate binding studies were carried out spectrally using a Philips PU8800 US/Vis scanning spectrophotometer according to Omura and Sato (1964) and Jefcoate (1979) respectively. Protein content was determined by the method of Lowry et al. 1956. […] CO was bubbled into the sample cuvette and the difference spectrum was recorded between 390-500 nm. […] Nootkatone was added to the microsomal fractions in the sample cuvette but to the buffer in the reference cuvette and difference spectra recorded between 350-500 nm. […]
The ethyl acetate extracts from biotransformation studies were directly spotted on to TLC plates and developed in solvent system heptane/pyridine/ethyl acetate (100/75/1 v/v) in a chromatographic tank lined with a blotting paper the same size as the TLC plate. […] The Rf valves of spots were measured and compared to the literature. […]

Data set [5] addresses T1, cytochrome P450 3A4. Description: biochemical. The data set is classed as binding. The protocol:
Human cytochrome P450 3A4 was expressed using the vector pAAH5 (p3A4) in Saccharomyces cerevisiae strain AH22 (Guengerich et al., 1991). Plasmid DNA was prepared using Promega's Wizard kit and S. cerevisiae strain AH22 (a his4-519 leu2-3,2-112) was used for transformation. Transformants were grown and maintained at 30° C. on minimal medium containing 2% (w/v) glucose, 0.67% (w/v) Difco yeast nitrogen base without amino acids and 20 μg/ml histidine. Cytochrome P450 content and substrate binding studies were carried out spectrally using a Philips PU8800 US/Vis scanning spectrophotometer according to Omura and Sato (1964) and Jefcoate (1979) respectively. Protein content was determined by the method of Lowry et al. 1956. Yeast microsomal fractions used in reduced carbon monoxide difference spectra, substrate binding studies and metabolism studies were prepared as described previously (Mehmood et al., 1995). This involved mechanical breakage of the yeast cells (harvested at 5×10^7 cells/ml) using a Braun MSK homogeniser and centrifugation to pellet cells and mitochondria prior to harvesting microsomes after 1 h, 100000 g. […] CO was bubbled into the sample cuvette and the difference spectrum was recorded between 390-500 nm. […] Nootkatone was added to the microsomal fractions in the sample cuvette but to the buffer in the reference cuvette and difference spectra recorded between 350-500 nm.

Data set [6] relates to cytochrome P450 or related enzyme system. Kind of data set: Inhibition of the first enzyme catalysed oxidative step (conversion of valencene to nootkatone). Type of data set: cell-based, both eukaryotes and prokaryotes. The conditions noted are these: valencene oxidation; many organisms, eukaryotes and prokaryotes. The text has this: In addition to plant produced nootkatone a number of enzyme systems produced by organisms other than higher plants have the capability of converting synthetic precursors of nootkatone to nootkatone itself. Thus, for example, a variety of microorganisms can oxidise valencene to nootkatone.
Whilst investigating such transformations as effected by bacteria and fungi, it was deduced that the conversion was the result of two oxidative steps. The first was indicated to be carried out by an enzyme thought to be a cytochrome P450 or related enzyme system. The second appeared as an oxidoreductase transformation.

Data set [7] is described as follows: Toxicity of nootkatone at concentrations in grapefruit juice. The settings on record: at concentrations found in normal strength grapefruit juice (approximately 7 mg/200 ml).

T1 sequence (P08684 whole entry): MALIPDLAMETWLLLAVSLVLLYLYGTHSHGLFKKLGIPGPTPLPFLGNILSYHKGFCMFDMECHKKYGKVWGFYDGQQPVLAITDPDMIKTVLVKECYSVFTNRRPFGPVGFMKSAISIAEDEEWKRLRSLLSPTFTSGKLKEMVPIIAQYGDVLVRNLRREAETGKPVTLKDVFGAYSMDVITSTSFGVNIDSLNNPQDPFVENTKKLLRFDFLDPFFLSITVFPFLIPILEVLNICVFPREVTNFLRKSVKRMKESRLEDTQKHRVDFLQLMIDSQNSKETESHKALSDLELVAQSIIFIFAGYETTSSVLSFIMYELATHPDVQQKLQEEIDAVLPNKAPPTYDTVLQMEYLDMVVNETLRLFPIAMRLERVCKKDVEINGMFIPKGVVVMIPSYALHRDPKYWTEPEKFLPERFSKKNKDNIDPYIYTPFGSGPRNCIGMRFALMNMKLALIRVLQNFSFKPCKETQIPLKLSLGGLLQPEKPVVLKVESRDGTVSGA

With `CCOC(=O)C1=C(C)NC(C)=C(C(=O)OC)C1c1cccc([N+](=O)[O-])c1` (racemic) [nitrendipine], in data set [1], the gastrointestinal absorption entry is “almost complete” and the systemic bioavailability is recorded as 5% to 30.

As for `CCOC(=O)C1=C(C)NC(C)=C(C(=O)OC)C1c1cccc(Cl)c1Cl` (stereo not shown) [felodipine], the average bioavailability in data set [2] is 15%.

With `CC(=O)N1CCN(c2ccc(OCC3COC(Cn4ccnc4)(c4ccc(Cl)cc4Cl)O3)cc2)CC1` (stereo not shown) [ketoconazole], in the data set on CYP3A4, the “inhibition of CYP3A4” value is listed as “known to inhibit CYP3A4”.

Take `C[C@@H]1O[C@@H](O[C@H]2[C@H](Oc3cc(O)c4c(c3)O[C@H](c3ccc(O)cc3)CC4=O)O[C@H](CO)[C@@H](O)[C@@H]2O)[C@H](O)[C@H](O)[C@H]1O` [naringin]: the “interaction with felodipine compared with grapefruit juice” value in data set [3] is recorded as “less interaction”.

As to `C=C(C)C1CCC2=CC(O)CC(C)C2(C)C1` (stereo not shown) [nootkatol], the “inhibitory effect compared with nootkatone” value on cytochrome P450 3A4 [4] (similar experiments to nootkatone) was “less marked inhibitory effect”.

Usually IC50 stands for the midpoint of a concentration-inhibition curve. As a reminder, the Kd is the concentration at which binding is half-saturated. Low readings indicate higher affinity, high ones lower affinity. As to `C=C(C)[C@@H]1CCC2=CC(=O)C[C@@H](C)[C@]2(C)C1` [nootkatone], the IC50 on cytochrome P450 3A4 [4] was less than 140 µM. For the same compound, the Kd on cytochrome P450 3A4 [5] fell in the range of 80 to 100 µM. Also, in data set [6], the “inhibition of the first enzyme catalysed oxidative step” value was “acts as an inhibitor of the first enzyme catalysed oxidative step”. For the same compound, in data set [7], the toxicity result is “does not appear to be toxic”.
